Measurements: patent US12669505B2, “Detection of desmoglein-2 in cancers of epithelial origin” (HDT Bio Corp., priority 2019, dated 2026)

Tested on: ovarian cancer cell lines (OV-CAR)
Assay: Western blot of DSG2 in OV-CAR cell supernatants after cisplatin treatment
Type: cell-based
Experimental: FIGS. 5A, 5B and 5C (collectively FIGS. 5A-5C) show the effect of DSG2 expression in response to cisplatin.
Western Blot. Mini-PROTEAN precast gels (BIO-RAD, Hercules, CA) with 4-15% gradient polyacrylamide are used. A total of 1 μg protein mixed with 2× loading buffer (10 mM Tris-HCl, pH 6.8, 200 mM DTT, 4% SDS, 20% glycerol, 0.2% bromophenol blue) is loaded per lane. Samples are either boiled (B) for 5 min or loaded unboiled (UB). The following running buffer is used: 25 mM Tris, pH 8.3, 0.192 M glycine, 0.1% SDS. After electrophoresis, proteins are transferred to nitrocellulose and incubated with the corresponding antibodies. For detection of DSG2 binding, filters are incubated with recombinant human DSG2 protein and anti-DSG2 antibody 6D8 as described (Wang et al. Nat Med. 2011; 17(1):96-104). Other Western blots use a primary mouse monoclonal antibody followed by an anti-mouse IgG HRP conjugate. Selected Western blots are scanned and quantified using the ImageJ 1.32 software (National Institutes of Health, Bethesda, MD).
In this Example, a potential mode of chemoresistance was investigated, DSG2 protein levels were determined in cancer cells after treatment with cisplatin, a commonly used platinum-based therapeutic used as first-line treatment of ovarian cancer and its metastases.
Cell supernatants from ovarian cancer cell lines (OV-CAR) were first interrogated with monoclonal and polyclonal anti-DSG2 antibodies to confirm specificity of the antibodies. […] Within 2 days of cisplatin treatment, the presence of cleaved DSG2, a product of DSG2 shedding, was detected in cell supernatant (FIGS. 5A and 5B). Quantitative analysis of the blot intensity indicated DSG2 peaking at 2 days after cisplatin treatment.

SMILES: N.N.[Cl][Pt][Cl] [cisplatin]
- time of DSG2 peak by quantitative analysis of blot intensity (OV-CAR cells, after cisplatin treatment, ImageJ, day 0 as control): 2 days
- time until cleaved DSG2 (product of DSG2 shedding) was detected in cell supernatant (OV-CAR cells, after cisplatin treatment, Western blot): ≤ 2 days
- DSG2 response of ovarian cancer cells to treatment (cisplatin treatment): upregulated and shed in increased amounts
